# Data as given in patent US9688678B2, “Oxindole compounds carrying a nitrogen-bound spiro substituent and use thereof for treating vasopressin-related diseases” (AbbVie Deutschland GmbH & Co. KG, priority 2014, dated 2017).
# Columns and labels:
# [1] = molecular target: human vasopressin V1a receptor (Homo sapiens (Human), UniProt P37288); assay: Vasopressin V1a receptor binding assay; conditions: selectivity quotient, human V1a vs human V1b receptor
# Procedure: The test substances were dissolved in a concentration of 5 mM M in DMSO. Further dilution of these DMSO solutions took place as described for V1b.
# The membrane pellet was again homogenized in a High-Pressure-Homogenizer, Polytec 50K at 1500 PSI (Heinemann, Germany) and subsequently taken up in 50 mM Tris-HCl, pH 7.4, homogenized and stored in aliquots frozen in liquid nitrogen at −190° C.
# (§1) The incubation buffer was: 50 mM Tris, 10 mM MgCl2, 0.1% BSA, pH 7.4.
# Duplicate determinations were carried out.
# After incubation (60 minutes at room temperature), the samples were processed as described for V1b.
# (§2) The binding parameters were calculated by nonlinear regression in SAS.
# [2] = molecular target: human vasopressin V1b receptor (Homo sapiens (Human), UniProt P47901); assay: Vasopressin V1b receptor binding assay; conditions: membranes from CHO-K1 cells, displacement of 3H-AVP
# Procedure: The test substances were dissolved in a concentration of 5 mM in 100% DMSO and further diluted to 5×10^−4 M to 5×10^−9 M. These serial DMSO predilutions were diluted 1:10 with assay buffer. The substance concentration was further diluted 1:5 in the assay mixture resulting in 2% DMSO in the mixture. All dilutions were performed in a Biomek NX automation workstation (Beckman)
# The membrane pellet was again homogenized and centrifuged as described and subsequently taken up in 50 mM Tris-HCl, pH 7.4, homogenized and stored in aliquots frozen in liquid nitrogen at −190° C.
# as §1
# All determinations were carried out as duplicate determinations. […] The liquid scintillation measurement took place in a Microbeta TriLux 12 (Wallac). Analysis:
# as §2
# Sequence of human vasopressin V1a receptor (P37288 whole entry): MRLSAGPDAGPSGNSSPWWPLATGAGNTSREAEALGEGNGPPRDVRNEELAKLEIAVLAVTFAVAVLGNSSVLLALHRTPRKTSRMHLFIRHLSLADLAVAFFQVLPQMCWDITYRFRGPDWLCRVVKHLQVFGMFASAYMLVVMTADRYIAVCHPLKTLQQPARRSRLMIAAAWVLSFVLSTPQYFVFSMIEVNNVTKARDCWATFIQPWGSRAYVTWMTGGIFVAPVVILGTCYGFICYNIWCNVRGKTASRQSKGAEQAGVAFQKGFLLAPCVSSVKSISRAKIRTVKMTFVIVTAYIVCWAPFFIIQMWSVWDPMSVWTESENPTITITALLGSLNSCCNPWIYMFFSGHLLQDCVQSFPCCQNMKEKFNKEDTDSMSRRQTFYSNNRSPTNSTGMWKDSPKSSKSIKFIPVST
# Sequence of human vasopressin V1b receptor (P47901 whole entry): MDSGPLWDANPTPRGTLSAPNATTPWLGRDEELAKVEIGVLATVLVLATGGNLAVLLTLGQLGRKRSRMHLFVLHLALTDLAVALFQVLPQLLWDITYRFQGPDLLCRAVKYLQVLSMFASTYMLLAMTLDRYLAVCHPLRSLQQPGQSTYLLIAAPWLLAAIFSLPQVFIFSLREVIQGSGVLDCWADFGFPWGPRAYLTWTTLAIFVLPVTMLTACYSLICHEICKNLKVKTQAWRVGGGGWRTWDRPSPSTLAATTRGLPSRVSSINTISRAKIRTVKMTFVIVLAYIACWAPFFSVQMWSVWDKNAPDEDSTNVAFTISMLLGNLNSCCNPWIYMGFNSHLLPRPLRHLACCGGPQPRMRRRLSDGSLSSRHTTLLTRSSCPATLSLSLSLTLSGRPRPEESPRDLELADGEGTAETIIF
Structure (SMILES),Ki(h-V1a)/ Ki(h-V1b) [1],Ki [2]
"CCOc1ccc(OC)cc1C1(N2CC3(CN(C4CCN(C)CC4)C3)C2)C(=O)N(S(=O)(=O)c2ccc(OC)cc2OC)c2ccc(C#N)cc21 (racemic) [Example 2, (±)-1-(2,4-dimethoxyphenyl)sulfonyl-3-(2-ethoxy-5-methoxy-phenyl)-3-[2-(1-methyl-4-piperidyl)-2,6-diazaspiro[3.3]heptan-6-yl]-2-oxo-indoline-5-carbonitrile]",++ (25-75),10 to 100 nM
"CCOc1ccc(OC)cc1C1(N2CC3(CN(C4CCN(C)CC4)C3)C2)C(=O)N(S(=O)(=O)c2cccc3cccnc23)c2ccc(C#N)cc21 (racemic) [Example 3, (±)-3-(2-ethoxy-5-methoxy-phenyl)-3-[2-(1-methyl-4-piperidyl)-2,6-diazaspiro[3.3]heptan-6-yl]-2-oxo-1-(8-quinolylsulfonyl)indoline-5-carbonitrile]",+++ (>75),10 to 100 nM
"CCOc1ccc(OC)cc1C1(N2CC3(CN(C4CCN(C)CC4)C3)C2)C(=O)N(S(=O)(=O)c2ccc(OC)cc2)c2ccc(C#N)cc21 (racemic) [Example 5, (±)-3-(2-ethoxy-5-methoxy-phenyl)-1-(4-methoxyphenyl)sulfonyl-3-[2-(1-methyl-4-piperidyl)-2,6-diazaspiro[3.3]heptan-6-yl]-2-oxo-indoline-5-carbonitrile]",+ (10-<25),1 to 10 nM
"CCOc1ncccc1C1(N2CC3(CN(C4CCN(C)CC4)C3)C2)C(=O)N(S(=O)(=O)c2ccc(OC)cc2)c2ccc(C#N)cc21 (racemic) [Example 12, (±)-3-(2-ethoxy-3-pyridyl)-1-(4-methoxyphenyl)sulfonyl-3-[2-(1-methyl-4-piperidyl)-2,6-diazaspiro[3.3]heptan-6-yl]-2-oxo-indoline-5-carbonitrile]",,10 to 100 nM
"CCOc1ccc(OC)cc1C1(N2CC3(CN(C4CCN(C)CC4)C3)C2)C(=O)N(S(=O)(=O)c2ccc(OC)cc2)c2ccc(C#N)cc21 (single isomer, unassigned; (-)) [Example 6, (−)-3-(2-ethoxy-5-methoxy-phenyl)-1-(4-methoxyphenyl)sulfonyl-3-[2-(1-methyl-4-piperidyl)-2,6-diazaspiro[3.3]heptan-6-yl]-2-oxo-indoline-5-carbonitrile]",,10 to 100 nM
"CCOc1ccc(OC)cc1[C@]1(N2CC3(CN(C4CCN(C)CC4)C3)C2)C(=O)N(S(=O)(=O)c2cccc(OC)n2)c2ccc(C#N)cc21 [Example 32, (3S)-3-(2-ethoxy-5-methoxy-phenyl)-1-[(6-methoxy-2-pyridyl)sulfonyl]-3-[2-(1-methyl-4-piperidyl)-2,6-diazaspiro[3.3]heptan-6-yl]-2-oxo-indoline-5-carbonitrile]",,10 to 100 nM

# Second part, the compound after the results:
Ki(h-V1a)/ Ki(h-V1b) [1],Ki [2],Structure (SMILES)
+++ (>75),1 to 10 nM,"CCOc1ccc(OC)cc1C1(N2CC3(CN(C4CCN(C)CC4)C3)C2)C(=O)N(S(=O)(=O)c2ccc(OC)cn2)c2ccc(C#N)cc21 (racemic) [Example 1, (±)-3-(2-ethoxy-5-methoxy-phenyl)-1-[(5-methoxy-2-pyridyl)sulfonyl]-3-[2-(1-methyl-4-piperidyl)-2,6-diazaspiro[3.3]heptan-6-yl]-2-oxo-indoline-5-carbonitrile]"
+++ (>75),1 to 10 nM,"CCOc1cc(F)ccc1C1(N2CC3(CN(C4CCN(C)CC4)C3)C2)C(=O)N(S(=O)(=O)c2ccc(OC)cn2)c2ccc(C#N)cc21 (racemic) [Example 7, (±)-3-(2-ethoxy-4-fluoro-phenyl)-1-[(5-methoxy-2-pyridyl)sulfonyl]-3-[2-(1-methyl-4-piperidyl)-2,6-diazaspiro[3.3]heptan-6-yl]-2-oxo-indoline-5-carbonitrile]"
,1 to 10 nM,"CCOc1ccc(OC)cc1C1(N2CC3(CN(C4CCN(C)CC4)C3)C2)C(=O)N(S(=O)(=O)c2ccc(OC)cn2)c2cc(C#N)ccc21 (racemic) [Example 29, (±)-3-(2-ethoxy-5-methoxy-phenyl)-1-[(5-methoxy-2-pyridyl)sulfonyl]-3-[2-(1-methyl-4-piperidyl)-2,6-diazaspiro[3.3]heptan-6-yl]-2-oxo-indoline-6-carbonitrile]"
